In BindingDB's records for patent US20240043395 (Neuropore Therapies, 2024):

Target: Toll-like receptor 2 (Homo sapiens, UniProt O60603)
Assay: LR2 Assays
Method: Next, 50 μL of an approximate 3×EC50 concentration of each agonist (Pam2CSK4 or Pam3CSK4) was added to the wells containing test compounds or the vehicle control. The plates were then incubated at 37° C./5% CO2 for 18 h. For each assay run, non-treated HEK-Blue hTLR2 cells were treated with serial dilutions of agonists to determine EC50 values for the respective run. On day 2, secreted alkaline phosphatase (SEAP) activity was detected in cell culture supernatants. In brief, 20 μL was collected from each well and transferred to a 96-well plate. Next, 200 μL of Quanti-Blue detection reagent was added to each well. […] IC50 values were calculated based on 8-point dilutions for each compound.

Chain of Toll-like receptor 2 (O60603 whole entry): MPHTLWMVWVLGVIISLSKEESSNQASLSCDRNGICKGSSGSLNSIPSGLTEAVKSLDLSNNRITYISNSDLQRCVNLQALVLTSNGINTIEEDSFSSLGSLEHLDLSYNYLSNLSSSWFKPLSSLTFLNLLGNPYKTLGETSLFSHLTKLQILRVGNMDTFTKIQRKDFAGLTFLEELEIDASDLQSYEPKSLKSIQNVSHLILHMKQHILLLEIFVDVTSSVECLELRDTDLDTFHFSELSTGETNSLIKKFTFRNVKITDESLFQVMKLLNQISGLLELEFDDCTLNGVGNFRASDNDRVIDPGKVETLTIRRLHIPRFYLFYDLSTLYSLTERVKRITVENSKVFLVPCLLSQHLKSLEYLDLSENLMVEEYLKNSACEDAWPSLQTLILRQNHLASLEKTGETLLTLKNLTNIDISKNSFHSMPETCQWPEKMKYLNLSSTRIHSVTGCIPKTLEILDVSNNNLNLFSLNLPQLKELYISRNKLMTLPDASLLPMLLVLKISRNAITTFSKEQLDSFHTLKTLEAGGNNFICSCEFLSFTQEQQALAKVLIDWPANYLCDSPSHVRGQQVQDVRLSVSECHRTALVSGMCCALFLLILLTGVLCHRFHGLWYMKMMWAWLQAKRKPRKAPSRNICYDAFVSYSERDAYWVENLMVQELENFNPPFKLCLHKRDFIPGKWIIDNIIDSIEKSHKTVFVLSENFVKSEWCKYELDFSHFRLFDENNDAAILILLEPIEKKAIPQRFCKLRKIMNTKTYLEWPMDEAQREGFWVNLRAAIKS

Question: Which IC50 does the source give for O=Cc1cc(NC(=O)c2csc(N3CCCCC3)n2)cc(F)c1O [US20240043395, Compound 9] here?
Answer: 5.2 µM
